The text below walks through data of patent US20240270762A1, “PENICILLIN-BINDING PROTEIN INHIBITORS” (priority 2021, published 2024).

Converted amounts (≈) assume the structure as drawn.

One assay relates to N. gonorrhoeae CDC-0197. In words: Liquid broth MIC in Fastidious broth. The conditions noted are these: Neisseria gonorrhoeae, CDC0197, read-out: Minimum Inhibitory Concentration, CDC-0197.
Another assay concerns N. gonorrhoeae WHO M. In words: Liquid broth MIC in Fastidious broth. The settings on record: Neisseria gonorrhoeae, read-out: Minimum Inhibitory Concentration, WHO M.
The target of assay [1] is T1, PBP1a from Acinetobacter baumannii (ATCC 19606) (Acinetobacter baumannii, UniProt A0ABX6CK30).
T1 sequence (A0ABX6CK30 1-851): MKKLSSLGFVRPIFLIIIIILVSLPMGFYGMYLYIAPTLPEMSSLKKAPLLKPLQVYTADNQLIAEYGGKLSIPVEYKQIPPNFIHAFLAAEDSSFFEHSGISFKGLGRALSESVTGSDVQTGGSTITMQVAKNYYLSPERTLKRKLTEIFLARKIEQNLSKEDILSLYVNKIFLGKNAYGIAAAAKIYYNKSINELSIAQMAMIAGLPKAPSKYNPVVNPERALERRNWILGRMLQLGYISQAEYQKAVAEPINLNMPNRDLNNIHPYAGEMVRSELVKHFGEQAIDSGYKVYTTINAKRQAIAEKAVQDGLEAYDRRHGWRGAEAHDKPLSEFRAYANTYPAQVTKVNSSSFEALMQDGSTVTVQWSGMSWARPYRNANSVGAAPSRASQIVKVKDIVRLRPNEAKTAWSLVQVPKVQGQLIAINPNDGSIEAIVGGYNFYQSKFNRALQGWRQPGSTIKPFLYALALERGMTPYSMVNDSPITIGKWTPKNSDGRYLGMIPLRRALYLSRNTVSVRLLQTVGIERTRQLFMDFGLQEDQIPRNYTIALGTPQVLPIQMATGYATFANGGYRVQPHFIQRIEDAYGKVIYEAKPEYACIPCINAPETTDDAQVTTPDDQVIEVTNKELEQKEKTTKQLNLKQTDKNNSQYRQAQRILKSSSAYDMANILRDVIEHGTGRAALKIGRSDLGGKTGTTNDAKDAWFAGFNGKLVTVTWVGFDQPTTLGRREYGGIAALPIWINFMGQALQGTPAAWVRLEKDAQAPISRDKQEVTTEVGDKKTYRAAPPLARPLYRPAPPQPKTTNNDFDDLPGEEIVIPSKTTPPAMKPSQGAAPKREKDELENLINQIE
In words: Bocillin-FL fluorescence polarization competition binding, A. baumannii PBP1a. The settings on record: fluorescence polarization competition binding assay using Bocillin-FL; read-out: A. baumannii PBP1a Potency. An outline of the steps:
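Purified PBPs pre-incubated with inhibitor (E. coli PBP3 1.5 μM, 30 min; P. aeruginosa PBP3 0.75 μM, A. baumannii PBP1a 1 μM and PBP3 0.2 μM, 15 min), then Bocillin-FL 0.1 μM (0.05 μM for PBP1a) added; FP read up to 60 min. EC50 = concentration halving bound Bocillin-FL.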
In general terms: Fluorescence polarisation rises when a labelled molecule tumbles more slowly, as on binding a larger partner.

The subject of a further assay is N. gonorrhoeae WHO K. Description: Liquid broth MIC in Fastidious broth. The settings on record: Neisseria gonorrhoeae, read-out: Minimum Inhibitory Concentration, WHO K.
A further assay relates to N. gonorrhoeae MS11. Description: Liquid broth MIC in Fastidious broth. The settings on record: Neisseria gonorrhoeae, MS11, read-out: Minimum Inhibitory Concentration, MS11.
The subject of a further assay is N. gonorrhoeae WHO Q. Description: Liquid broth MIC in Fastidious broth. The conditions noted are these: Neisseria gonorrhoeae, read-out: Minimum Inhibitory Concentration, WHO Q.
A further assay concerns N. gonorrhoeae WHO X. In words: Liquid broth MIC in Fastidious broth. The settings on record: Neisseria gonorrhoeae, read-out: Minimum Inhibitory Concentration, WHO X.
The next assay has as its system N. gonorrhoeae WHO Z. Description: Liquid broth MIC in Fastidious broth. The settings on record: Neisseria gonorrhoeae, read-out: Minimum Inhibitory Concentration, WHO Z.
For the next assay, the system named is N. gonorrhoeae WHO L. In words: Liquid broth MIC in Fastidious broth. The conditions noted are these: Neisseria gonorrhoeae, read-out: Minimum Inhibitory Concentration, WHO L.

Procedure for N. gonorrhoeae WHO Z: Additional antibacterial testing of the series was performed in 8 reference strains of N. gonorrhoeae (ATCC 49226, FA1090, MS 11, WHO G, WHO L, WHO M, WHO K, WHO X, WHO Z, WHO Q, CDC-0197). ATCC 49226, FA1090, MS11, WHO G, WHO L, and WHO M produce wild type or wild-type like PBP2. WHO K, WHO X, WHO Z, WHO Q, and CDC-0197 produce mosaic PBP2. Liquid broth-based assays were used for antibacterial testing of PBP inhibitors in Neisseria gonorrhoeae. Briefly, cryo-preserved bacterial cultures of clinical strains were streaked for isolation on Chocolate Agar (72 g/L (2×) GC Agar Base (BD #228950) and 2% (2×) Hemoglobin was autoclaved at 121° C. for 20 minutes to sterilize. Once cooled to ˜50° C. the 2×GC Agar Base and 2× Hemoglobin solutions are combined and 1% IsoVitaleX Enrichment (BD #211876) was added to the solution). Strains were incubated at 36° C. and 5% CO2 to allow growth of colonies, 24 hours before inoculum preparation. 2-fold serial dilutions of test compounds were conducted in a 96 well plate with a final volume of 75 μL per well at 2-fold the final desired concentration in Fastidious broth (Remel #R07664). For preparation of assay inoculum, a direct suspension was prepared by aseptically swabbing 10-15 colonies from agar plates into culture tubes containing 2 mL of fresh sterile saline. After the dilution plates were set up, direct suspensions were then diluted in a cuvette containing sterile saline and the optical density was measured at 600 nm. Inocula were diluted such that 75 μL of this culture in Fastidious broth results in a starting bacterial concentration of 5×10^5 CFU/mL when added to the dilution plates. The plates were incubated for ˜24 hours at 36° C. and 5% CO2.

With `O=C(NCCCN1CCN(C(=O)N[C@@H](C(=O)N[C@H]2Cc3ccc(F)c(C(=O)O)c3OB2O)c2cc(F)c(O)c(O)c2Cl)C1=O)Nc1ccc(O)cc1` [Example 284, (R)-3-((R)-2-(2-chloro-5-fluoro-3,4-dihydroxyphenyl)-2-(3-(3-(3-(4-hydroxyphenyl)ureido)propyl)-2-oxoimidazolidine-1-carboxamido)acetamido)-7-fluoro-2-hydroxy-3,4-dihydro-2H-benzo[e][1,2]oxaborinine-8-carboxylic acid], the MIC was 16 to 32 µg/mL (≈ 21.4 to 42.8 µM) in the assay with N. gonorrhoeae CDC-0197; 4 to 8 µg/mL (≈ 5.36 to 10.7 µM) with N. gonorrhoeae WHO M; 16 to 32 µg/mL (≈ 21.4 to 42.8 µM) in the assay with N. gonorrhoeae WHO K; 4 to 8 µg/mL (≈ 5.36 to 10.7 µM) with N. gonorrhoeae MS11; 4 to 8 µg/mL (≈ 5.36 to 10.7 µM) in the assay on N. gonorrhoeae WHO Q; above 64 µg/mL in the assay with N. gonorrhoeae WHO X. Moreover, the MIC in the assay on N. gonorrhoeae WHO Z lay in the range of 4 to 8 µg/mL (≈ 5.36 to 10.7 µM); with N. gonorrhoeae WHO L, 16 to 32 µg/mL (≈ 21.4 to 42.8 µM). In addition, in [1], the IC50 was above 250 µM.

Consider `O=C(NCCCN1CCN(C(=O)NC(C(=O)N[C@H]2Cc3ccc(F)c(C(=O)O)c3OB2O)c2cc(F)c(O)c(O)c2Cl)C(=O)C1=O)c1ccc(O)c(F)c1` (stereo partly drawn) [Example 304, (3R)-3-(2-(2-chloro-5-fluoro-3,4-dihydroxyphenyl)-2-(4-(3-(3-fluoro-4-hydroxybenzamido)propyl)-2,3-dioxopiperazine-1-carboxamido)acetamido)-7-fluoro-2-hydroxy-3,4-dihydro-2H-benzo[e][1,2]oxaborinine-8-carboxylic acid], for which the MIC with N. gonorrhoeae CDC-0197 is above 64 µg/mL; with N. gonorrhoeae WHO M, 16 to 32 µg/mL (≈ 20.6 to 41.1 µM); in the assay with N. gonorrhoeae WHO K, above 64 µg/mL; in the assay with N. gonorrhoeae MS11 it was 16 to 32 µg/mL (≈ 20.6 to 41.1 µM); in the assay with N. gonorrhoeae WHO Q it was above 64 µg/mL; in the assay with N. gonorrhoeae WHO X, above 64 µg/mL. Also, the MIC in the assay with N. gonorrhoeae WHO Z and in the assay on N. gonorrhoeae WHO L was above 64 µg/mL in each case. Also, the IC50 in assay [1] was above 250 µM.

For the compound `O=C(NCCCN1CCN(C(=O)NC(C(=O)N[C@H]2Cc3ccc(F)c(C(=O)O)c3OB2O)c2cc(F)c(O)c(O)c2Cl)C1=O)c1ccc(O)cc1` (stereo partly drawn) [Example 280, (3R)-3-(2-(2-chloro-5-fluoro-3,4-dihydroxyphenyl)-2-(3-(3-(4-hydroxybenzamido)propyl)-2-oxoimidazolidine-1-carboxamido)acetamido)-7-fluoro-2-hydroxy-3,4-dihydro-2H-benzo[e][1,2]oxaborinine-8-carboxylic acid], the MIC was above 64 µg/mL in the assay on N. gonorrhoeae CDC-0197; 16 to 32 µg/mL (≈ 21.9 to 43.7 µM) in the assay on N. gonorrhoeae WHO M; above 64 µg/mL with N. gonorrhoeae WHO K; 16 to 32 µg/mL (≈ 21.9 to 43.7 µM) in the assay with N. gonorrhoeae MS11; above 64 µg/mL in the assay on N. gonorrhoeae WHO Q; above 64 µg/mL in the assay on N. gonorrhoeae WHO X. Also, the MIC in the assay with N. gonorrhoeae WHO Z is 16 to 32 µg/mL (≈ 21.9 to 43.7 µM); with N. gonorrhoeae WHO L, above 64 µg/mL. In addition, the IC50 in [1] is above 250 µM.

In the case of `Cc1cc(C(=O)NCCCN2CCN(C(=O)NC(C(=O)N[C@H]3Cc4ccc(F)c(C(=O)O)c4OB3O)c3cc(F)c(O)c(O)c3Cl)C(=O)C2=O)c(F)cn1` (stereo partly drawn) [Example 301, (3R)-3-(2-(2-chloro-5-fluoro-3,4-dihydroxyphenyl)-2-(4-(3-(5-fluoro-2-methylisonicotinamido)propyl)-2,3-dioxopiperazine-1-carboxamido)acetamido)-7-fluoro-2-hydroxy-3,4-dihydro-2H-benzo[e][1,2]oxaborinine-8-carboxylic acid], the MIC in the assay on N. gonorrhoeae CDC-0197 is above 64 µg/mL; in the assay on N. gonorrhoeae WHO M it was 16 to 32 µg/mL (≈ 20.6 to 41.2 µM); in the assay with N. gonorrhoeae WHO K, above 64 µg/mL; in the assay with N. gonorrhoeae MS11, 16 to 32 µg/mL (≈ 20.6 to 41.2 µM); with N. gonorrhoeae WHO Q it was above 64 µg/mL; in the assay with N. gonorrhoeae WHO X, above 64 µg/mL. In addition, the MIC with N. gonorrhoeae WHO Z and in the assay with N. gonorrhoeae WHO L was above 64 µg/mL each time. The IC50 in [1] was above 250 µM.
